Data on 6 compounds can be found in publication PMC6430730, “A short peptide potentially promotes the healing of skin wound” (Bioscience Reports, 2019).

The test system of one data set is C. albicans (ATCC 14053). Briefly: Antimicrobial activity assay (agar hole diffusion). Format: cell-based, Candida albicans. As to conditions: Amp (1 mg/ml), 7 μl in agar hole, 16–18 h, 37°C. More on the design: key: +: Possessing antimicrobial activity; -: Possessing no antimicrobial activity. As to the method:
(§1) The antimicrobial activity of OA-GL12 was performed based on our previous research. Briefly, fungal strain Candida albicans (ATCC 14053), Gram-positive bacterial strains Staphylococcus epidermidis (ATCC 12228), Staphylococcus haemolyticus (ATCC 29970), and Bacillus subtilis (ATCC 19659), Gram-negative bacterial strains Escherichia coli (ATCC 25922) were obtained from the Kunming Medical University. The microbes were cultivated in LB broth to OD600 = 0.8. A 10-μl aliquot of the bacteria was collected and added to fresh LB (10 ml) broth with 1% Type I agar (Sigma–Aldrich, St. Louis, MO, U.S.A.), and then poured into a 90-mm Petri dish. A micro hole was made after the agar was solidified, and a 7-μl aliquot of OA-GL12 (1 mM) was added to the hole. Petri dish was placed for 16–18 h at 37°C. As the symbol of antimicrobial activity, a clear zone appeared on the surface of the agar just like ampicillin (1 mg/ml), positive control, which represented the antimicrobial ability of OA-GL12.

Data set [1] deals with S. epidermidis (ATCC 12228). Briefly: Antimicrobial activity assay (agar hole diffusion). Format: cell-based, Staphylococcus epidermidis. More on the design: key: +: Possessing antimicrobial activity; -: Possessing no antimicrobial activity. The conditions noted are these: Amp (1 mg/ml), 7 μl in agar hole, 16–18 h, 37°C. Here is the method: as §1
For data set [2], the system named is S. haemolyticus (ATCC 29970). The data set is described as follows: Antimicrobial activity assay (agar hole diffusion). The conditions noted are these: Amp (1 mg/ml), 7 μl in agar hole, 16–18 h, 37°C. Format: cell-based, Staphylococcus haemolyticus. On the set-up: key: +: Possessing antimicrobial activity; -: Possessing no antimicrobial activity. As to the method: as §1

A further data set has as its system B. subtilis (ATCC 19659). Briefly: Antimicrobial activity assay (agar hole diffusion). On the set-up: key: +: Possessing antimicrobial activity; -: Possessing no antimicrobial activity. As to conditions: Amp (1 mg/ml), 7 μl in agar hole, 16–18 h, 37°C. The format is cell-based, Bacillus subtilis. As to the method: as §1
A further data set deals with E. coli (ATCC 25922). The data set is described as follows: Antimicrobial activity assay (agar hole diffusion). The conditions noted are these: Amp (1 mg/ml), 7 μl in agar hole, 16–18 h, 37°C. More on the design: key: +: Possessing antimicrobial activity; -: Possessing no antimicrobial activity. Format: cell-based, Escherichia coli. As to the method: as §1
Data set [3] is described as follows: DPPH free radical scavenging. Format: physicochemical. As to conditions: 30 min, room temperature, A517. As to the method:
2,2′-azino-bis (3-ethylbenzothiazoline-6-sulphonic acid) (ABTS) and 2,2-diphenyl-1-picrythydrazyl (DPPH)) scavenging activities of OA-GL12 were assessed referring to previous studies. Briefly, a stock solution of ABTS radical was prepared by incubating 2.8 mM potassium persulphate (Sigma–Aldrich, St. Louis, MO, U.S.A.) with 7 mM ABTS in water for no less than 6 h in the dark, and used immediately. The stock solution was diluted 50-fold with double distilled water. Dissolved samples with ultrapure water were added to the diluted stock solution, while the same volume of solvent was used as the blank, and Vitamin C as the positive control. The reaction was in the dark for 30 min. […] Meanwhile, the assay mixture contained 190 μl of 5 × 10^−5 M DPPH radical (Sigma–Aldrich, St. Louis, MO, U.S.A.) dissolved in ethanol and 10 μl of sample solution. The mixture was then incubated in a 96-well microtiter plates at room temperature for 30 min. Subsequently, the absorbance was measured at 517 nm. The free radical scavenging activity (%) was calculated by (Ablank − Asample) × 100/Ablank.
In general terms: DPPH is a stable violet radical that fades when it is reduced.

For a further data set, the system named is human erythrocytes. Briefly: Hemolytic activity assay. Format: cell-based. As to the method: Hemolytic activity assay was performed according to previous research. Briefly, erythrocytes were triply and softly washed with 0.9% normal saline. Then cells were incubated with various concentrations of OA-GL12 for 30 min (37°C), while 0.1% Triton X-100 as maximum hemolysis. The absorbance of supernatant was read at 540 nm after centrifugation with 3000×g for 4 min at room temperature. The numeric data of hemolytic activity (%) was calculated by [(Asample) × 100]/Atriton x-100.

Data set [4] has as its system HaCaT cells. Briefly: Cellular wound healing (scratch) assay, HaCaT. As to conditions: MMC 10 µg/ml alone, 24 h; vehicle 53.39 ± 10.11%; mean ± S.D., n=9. The format is cell-based, human. As to the method:
(§2) Cellular wound healing activity assay was performed as previous research. Briefly, human keratinocytes (HaCaT) (KCB 200442YJ) and human skin fibroblasts (HSF) (KCB 200537) were provided by Conservation Genetics CAS Kunming Cell Bank of Kunming Institute of Zoology, the Chinese Academy of Sciences, and cultured in Dulbecco’s modified Eagle’s medium (DMEM, BI, Israel) with 10% FBS (BI, Israel) and penicillin (100 units/ml)–streptomycin (100 units/ml) in a humidified atmosphere of 5% CO2 (37°C). The possible mycoplasma contamination was excluded by the EZ-PCR mycoplasma contamination detection kit (20-700-20, BI). Cell monolayer formation was formed by culturing the HaCaT and HSF (2.5 × 10^5 cells/well) cells in 24-well plates for 12–24 h with serum starvation and then made to the mechanical scratch wound by a sterile pipette tip (Axygen, U.S.A.). After washing with PBS twice to detach dead cells, cells monolayer was then cultured for next periods (from 0 to 24 h) in a serum-free basal medium (500 μl) with the continued presence of OA-GL12. The same volume of DMEM without OA-GL12 was made as vehicle. […] Cell migration activity was expressed as the percentage of the gap relative to the full area of the scratch using ImageJ software (National Institutes of Health, Bethesda, MD, U.S.A.) to evaluate the repair rate of scarification.

Another data set concerns HSF cells. The data set is described as follows: Cellular wound healing (scratch) assay, HSF. Format: cell-based, human. As to conditions: MMC 10 µg/ml alone, 24 h; vehicle 38.96 ± 3.34%; mean ± S.D., n=9. Here is the method: as §2
Data set [5] has as its system HaCaT cells. The data set is described as follows: Cytotoxicity of Gefitinib on HaCaT cells. The format is cell-based, human. As to conditions: Gefitinib 1 μM, 24 h; data not shown.
The test system of another data set is mice. The data set is described as follows: Acute toxicity assay. As to conditions: for Mortality (%): 3 male and 3 female mice, observed 2 weeks. Format: in vivo. Here is the method:
Two phases of acute toxicity were performed as previous study. Lethal concentration of OA-GL12 was tested at 5, 10, 25, and 50 μmol/kg by i.p. in mice, while using saline as negative control. The mortalities, toxic effects, and behavioral changes were observed and recorded for 2 weeks.

Data set [6] deals with full-thickness skin wound mice. As to conditions: in vivo.
Method: Adult male mice (22–25 g) from the same generation were purchased from Hunan SJA Laboratory Animal Co., Ltd (Certificate number 43004700043639, China). […] Mice were made full-thickness skin wound models after 7 days’ acclimation. Briefly, mice were anesthetized by intraperitoneal injection (i.p.) with 1% sodium pentobarbital (0.1 ml/20 g body weight). Dorsal hair were shaved by an electric clipper and sterilized with 75% alcohol. Two full-thickness skin wounds (8 × 8 mm) were surgically made on the back. After the surgery, the mice were placed in comfortable cages until they recovered from anesthesia. Nine mice were randomly divided into three groups. […] The left-sided wounds of the two groups were treated with the same volume of normal saline as vehicle, and the last group treated with 1 mg/ml KangFuXin (KFX, the ethanol extract of the American cockroach, Inner Mongolia Jingxin Pharmaceutical Co. Ltd, China, Z15020805) as positive control. Wounds were treated twice daily with samples and photographed at intervals of 2 days.
The condition of wounds was documented; then ImageJ software was used to estimate the wound areas (percentage of residual wound area to initial areas). […]

Where a SMILES comes first, the peptide text is derived from it.

In the case of `CC1(C)S[C@@H]2[C@H](NC(=O)[C@H](N)c3ccccc3)C(=O)N2[C@H]1C(=O)O` [Amp, ampicillin], the Antimicrobial activity result (in the data set with C. albicans (ATCC 14053); in data set [1]; in [2]; with B. subtilis (ATCC 19659); with E. coli (ATCC 25922)) was “+” throughout.
Consider `O=C1O[C@H]([C@@H](O)CO)C(O)=C1O` [Vitamin C], for which, in data set [3] (0.063 μM), the DPPH scavenging activity entry is “nearly inactive”. Further, the DPPH scavenging in data set [3] (1 μM, mean ± S.D., n=3) is reported as 7.71 ± 0.56%.
Take Triton X-100: the “Hemolytic ratio (%)” value with human erythrocytes (0.1% Triton X-100 as maximum hemolysis, 30 min, 37°C, A540) was 100%.
On to `CO[C@@]12[C@H](COC(N)=O)C3=C(C(=O)C(C)=C(N)C3=O)N1C[C@@H]1N[C@@H]12` [MMC, mitomycin C], for which the “healing rate of HaCaT cell scratch” value in the data set with HaCaT cells [4] is listed as 26.66 ± 4.64%. Moreover, in the data set with HSF cells, the “scratch healing of HSF cells” value stood at 22.78 ± 5.22%.
As for `COc1cc2ncnc(Nc3ccc(F)c(Cl)c3)c2cc1OCCCN1CCOCC1` [Gefitinib], the “cytotoxicity on HaCaT cells” value with HaCaT cells [5] was “no obvious cytotoxicity”.
For the compound `CC[C@H](C)[C@H](NC(=O)CNC(=O)[C@H](CO)NC(=O)[C@H](CC(C)C)NC(=O)[C@H](CC(C)C)NC(=O)CN)C(=O)N[C@@H](CC(N)=O)C(=O)N[C@@H](C)C(=O)N[C@@H](CCC(=O)O)C(=O)N[C@@H](Cc1c[nH]c2ccccc12)C(=O)N1CCC[C@H]1C(=O)N[C@@H](CS)C(=O)O` [OA-GL12] (H-GLLSGINAEWPC-OH), the “hemolytic activity on human erythrocytes in vitro” value with human erythrocytes was “negligible hemolytic activity”. Further, the “Mortality (%)” value in the data set with mice (5 μmol/kg i.p.), in the data set on mice (10 μmol/kg i.p.), in the data set on mice (25 μmol/kg i.p.) and in the data set with mice (50 μmol/kg i.p.) was 0% in each case. The “death and abnormal behaviors (tremor, retardation, irritability, piloerection, stiffness of tail)” value with mice (i.p. injection, 2 weeks) was “no death and other abnormal behaviors”. For the same compound, the “adverse effects on mouse body weight, general health, or behavior” value in data set [6] was “No adverse effects”.
